Consider two molecules from patent US20080213817A1, “Enhancement of Th2-Dependent and Inflammatory Response” (priority 2004, published 2008).

Holding throughout (format): cell-based, mice
One experiment relates to Itch. As to the kind of experiment: Immunoblotting of Itch level in activated thymocytes. Conditions: activated WT thymocytes. On the procedure: JNK1 was immunoprecipitated from 30 μg cell lysate with anti-JNK1 antibody (333, PharMingen) and its kinase activity measured by an immunecomplex kinase assay with GST-c-Jun(1-79) as a substrate (Xia et al. (2000) Proc Natl Acad Sci USA 97, 5243-5248). c-Jun phosphorylation was quantitated using a PhosphoImager (Bio-Rad) and gel loading was normalized by immunoblotting with a monoclonal antibody against JNK1/2 (666, PharMingen). ERK activation was examined by immunoblotting of gel separated whole cell extracts (100 μg) with an antibody specific for phospho-ERK (Cell Signaling). Polyclonal antibody against MEKK1 was prepared as described (Gallagher et al. (2002) J Biol Chem 277, 45785-45792). Antibodies against c-Jun, JunB, GATA3, c-Maf, NFATc1, NFATc2, p16, and p65 (RelA) were all from Santa Cruz Biotechnology. […] The levels of various proteins were quantitated by BioRad Quantity One software.
(§1) The levels of Itch and actin were examined was measured by immunoblotting. […] Cells were chased with nonradioactive amino acids for the indicated times, at which they were lysed and Itch expression levels were determined by radioimmunoprecipitation. The levels of [^35S]-labeled Itch were quantitated using a PhosphoImager. […] JNK activity was measured by an immunecomplex kinase assay. Phosphorylated c-Jun was detected by autoradiography and quantitated using a PhosphoImager. […]
(In general: In western blotting, separated proteins are transferred to a membrane and probed.)

A further experiment relates to c-Jun and JunB. As to the kind of experiment: Immunoblotting of Jun protein levels in activated T cells. On the procedure: JNK1 was immunoprecipitated from 30 μg cell lysate with anti-JNK1 antibody (333, PharMingen) and its kinase activity measured by an immunecomplex kinase assay with GST-c-Jun(1-79) as a substrate (Xia et al. (2000) Proc Natl Acad Sci USA 97, 5243-5248). c-Jun phosphorylation was quantitated using a PhosphoImager (Bio-Rad) and gel loading was normalized by immunoblotting with a monoclonal antibody against JNK1/2 (666, PharMingen). ERK activation was examined by immunoblotting of gel separated whole cell extracts (100 μg) with an antibody specific for phospho-ERK (Cell Signaling). Polyclonal antibody against MEKK1 was prepared as described (Gallagher et al. (2002) J Biol Chem 277, 45785-45792). Antibodies against c-Jun, JunB, GATA3, c-Maf, NFATc1, NFATc2, p16, and p65 (RelA) were all from Santa Cruz Biotechnology. Polyclonal antibody against Itch was prepared as described (Qiu et al. (2000) J Biol Chem 275, 35734-35737). The levels of various proteins were quantitated by BioRad Quantity One software.
as §1
Inactivation of MEKK1 or JNK Slows Down JunB and c-Jun Turnover • A. Thymocytes and CD4^+ T cells from WT and Mekk1^ΔKD were stimulated with anti-CD3+anti-CD28 for 24 hrs. Cell extracts were prepared and the levels of various transcription factors were measured by immunoblotting. The relative levels of the different proteins determined by densitometry are indicated. […] The mRNA levels of Jun family members and c-Fos were measured by RNase protection. […] Cell lysates were prepared and immunoprecipitated with various antibodies as indicated, separated by SDS-PAGE and analyzed by autoradiography. […]

In the next experiment the test system is WT thymocytes. As to the kind of experiment: Thymocyte proliferation, [3H] thymidine incorporation. The settings on record: WT thymocytes. On the procedure: For proliferation assays, purified thymocytes or CD4^+ or CD8^+ splenic T cells (2×10^5 cells/well) were cultured in round bottom 96-well plates (Costar) precoated with anti-CD3 antibody (BD Pharmingen) in the absence or presence of soluble anti-CD28 antibody (BD Pharmingen). After 3 days, cultures were pulsed for 6 hrs with 1 μCi [^3H] thymidine (New England Nuclear) per well and cells were harvested. [^3H] thymidine incorporation was measured by scintillation counting. When indicated, either recombinant IL-4 or neutralizing anti-IL-4 antibody (R&D Systems) were added prior to [^3H] thymidine labeling.
For proliferation assays, purified thymocytes (2×10^5 cells/well) were cultured in round bottom 96-well plates (Costar) precoated with anti-CD3 antibody (BD Pharmingen) in the absence or presence of soluble anti-CD28 antibody (BD Pharmingen). […] [^3H] thymidine incorporation was measured by scintillation counting. […]
The effect of the Mekk1^KD mutation on activation of JNK and other MAPKs in response to TCR and CD28 engagement was investigated. • A. WT and Mekk1^KD thymocytes were incubated with anti-CD3 (10 μg/ml) and anti-CD28 (1 μg/ml). At the indicated times, JNK activity was measured by an immunecomplex kinase assay using GST-c-Jun(1-79) as the substrate. Phosphorylated c-Jun was detected by autoradiography and quantitated using a PhosphorImager. […] Cell proliferation was measured as above. […]
(In general: Incorporation of labelled thymidine or its analogues reports DNA synthesis.)

Turning to `Oc1ccc(-c2nc(-c3ccncc3)c(-c3ccc(F)cc3)[nH]2)cc1` [SB202190], in the experiment on Itch, the “effect on Itch expression (in words)” value is given as “Negligible such effects”. In addition, the “c-Jun and JunB expression (in words)” value with c-Jun and JunB (WT CD4^+ T cells stimulated with anti-CD3 and anti-CD28, 24 hours) is listed as “No such effects”. Also, the “effect on c-Jun and JunB expression (in words)” value in the experiment on c-Jun and JunB (activated WT thymocytes) is “Negligible such effects”. Besides, the “effect on [3H] thymidine incorporation (in words)” value in the experiment on WT thymocytes (anti-CD3+anti-CD28) is “did not produce such an effect”.
As to `Oc1c2ccccc2c2c3c(cccc13)N=N2` [SP600125], in the experiment on Itch (24 hrs, 0.5 μM), the “decrease in Itch expression” value is listed as 2 fold. For the same molecule, in the experiment on c-Jun and JunB (activated WT thymocytes (anti-CD3+anti-CD28), 24 hrs, SP600125 0.5 μM, JNKI-1 25 μM), the “increase in c-Jun and JunB expression” value was found to be 4 fold. The “increase in [3H] thymidine incorporation” value in the experiment on WT thymocytes (different concentrations of anti-CD3+anti-CD28, increasing amounts of inhibitor, 72 hrs) is given as “at least 2 fold”.
